According to US5212310A (priority 1991, dated 1993):

Key:
[1] = test system: clonazepam-sensitive benzodiazepine binding site; conditions: cited from earlier work
GABAa receptor = GABAa receptor binding assay, displacement of 3H-RO15-1788 [3H-Flumazenil] in rat cortical tissue; conditions: 0.5 nM 3H-RO15-1788 [3H-Flumazenil], 30 min at 4° C., pH 7.4
Description: The pharmaceutical utility of compounds of this invention are indicated by the following assay for GABAa receptor activity.
Assays are carried out as described in Thomas and Tallman (J. Bio. Chem. 156: 9838-9842, J. Neurosci. 3:433-440, 1983). Rat cortical tissue is dissected and homogenized in 25 volumes (w/v) of 0.05M Tris HCl buffer (pH 7.4 at 4° C.). The tissue homogenate is centrifuged in cold (4°) at 20,000×g for 20'. The supernatant is decanted and the pellet is rehomogenized in the same volume of buffer and again centrifuged at 20,000×g. The supernatant is decanted and the pellet is frozen at -20° C. overnight. The pellet is then thawed and rehomogenized in 25 volume (original wt/vol) of buffer and the procedure is carried out twice. The pellet is finally resuspended in 50 volumes (w/vol of 0.05M Tris HCl buffer (pH 7.4 at […]).
Incubations contain […] of radioligand 0.5 nM (^3 H-RO15-1788 [^3 H-Flumazenil] specific activity 80 Ci/mmol), drug or blocker and buffer to a total volume of […]. Incubations are carried for 30 min at 4° C. then are rapidly filtered through GFB filters to separate free and bound ligand. Filters are washed twice with fresh 0.05M Tris HCl buffer (pH 7.4 at 4° C.) and counted in a liquid scintillation counter. […] diazepam is added to some tubes to determine nonspecific binding. Data are collected in triplicate determinations, averaged and % inhibition of total specific binding is calculated. Total Specific Binding=Total-Nonspecific. In some cases, the amounts of unlabeled drugs is varied and total displacement curves of binding are carried out. Data are converted to a form for the calculation of IC50 and Hill Coefficient (nH).

Row | Structure (SMILES) | block of enhancement of benzodiazepine binding by GABA agonists [1] | IC50 (GABAa receptor)
1 | CN1CCc2cc3c(cc2[C@H]1[C@@H]1OC(=O)c2c1ccc1c2OCO1)OCO3 [(+) bicuculline] | blocked | –
2 | CN1CCc2cc3c(cc2[C@@H]1[C@H]1OC(=O)c2c1ccc1c2OCO1)OCO3 [(-) bicuculline] | much less active | –
3 | O=c1[nH]c2ccncc2c2nc(-c3ccccc3F)cn12 [Compound 1, 2-(2-Fluorophenyl)-imidazol[1,2-c]pyrido[3,4-e]pyrimidin-5(6H)-one] | – | 42 nM
4 | O=c1[nH]c2ccncc2c2nc(-c3ccccc3)cn12 [Compound 2, 2-Phenyl-imidazo[1,2-c]pyrido[3,4-e]pyrimidin-5(6H)-one] | – | 169 nM
5 | O=c1[nH]c2cccnc2c2nc(-c3ccccc3)cn12 [Compound 15, 2-Phenylimidazo[1,2-c]pyrido[2,3-e]pyrimidin-5(6H)-one] | – | 132 nM
